{"source": "patent US9072741B2", "about": "“Methods of treating liver fibrosis and pre-cirrhosis with epidermal growth factor receptor inhibitors” (The General Hospital Corporation, priority 2009, dated 2015)", "test_system": "DEN-induced liver fibrosis/pre-cirrhosis", "assay": "DEN-treated rats, treatment begun at 8, 12 or 15 weeks: Ishak score", "assay_type": "in vivo, male Wistar rats", "procedure": "FIG. 8B is a bar graph depicting Ishak scores in male Wistar rats receiving weekly intraperitoneal injections of 50 mg/kg DEN for 18 weeks and vehicle only (n=8) or 2 mg/kg gefitnib (n=8) beginning at either 8, 12, or 15 weeks. *, significant.\nMale Wistar rats received weekly intraperitoneal injections of DEN (50 mg/kg) for 16 weeks. Rats received vehicle control or gefitinib (2 mg/kg) daily beginning at either 8, 12, or 15 weeks and lasting until 18 weeks. To assess the extent of liver disease at the start of each treatment, a subgroup of rats were sacrificed after a two-week washout of DEN and the liver was harvested and processed for analysis. Masson's trichrome stains of liver sections from each animal were analyzed by a blinded pathologist. After 8 weeks and 12 weeks of DEN administration, no macroscopic findings were observed on the surface of the liver (FIG. 8A). […] After 15 weeks of DEN administration, the rats had progressed to late stage cirrhosis which could be observed macroscopically on the surface of the liver (FIG. 8A) as well as microscopically. Rats receiving vehicle or gefitinib were sacrificed at 18 weeks after a two-week washout of DEN. The liver was harvested and processed for analysis. Masson's trichrome stains of liver sections from each animal were scored by a blinded pathologist by the method of Ishak. […]"}
{"smiles": "COc1cc2ncnc(Nc3ccc(F)c(Cl)c3)c2cc1OCCCN1CCOCC1", "note": "[gefitinib, 4-Quinazolinamine, N-(3-chloro-4-fluorophenyl)-7-methoxy-6-(3-(4-morpholinyl)propoxy)]", "values": [{"measurement": "progression of liver fibrosis/pre-cirrhosis (Ishak)", "setting": "2 mg/kg daily beginning at 8 weeks until 18 weeks", "value": "inhibited the progression of liver fibrosis/pre-cirrhosis"}, {"measurement": "progression of liver fibrosis/pre-cirrhosis (Ishak)", "setting": "2 mg/kg daily beginning at 12 weeks until 18 weeks", "value": "inhibited the progression of liver fibrosis/pre-cirrhosis"}]}
